Source: US12532883B2, “Powder compositions comprising salts of C4 to C10 oxocarboxylic acids and of unsaturated or aromatic C6 to C10 carboxylic acids” (Cosphatec GmbH, priority 2019, dated 2026)
Converted amounts (≈) assume the structure as drawn. Read-outs that look alike come from different tables or passages of the source.

Columns and labels:
Candida albicans = settings: cited from earlier work
Escherichia coli = settings: cited from earlier work
Solubility = format: physicochemical; settings: for solubility: 20° C.
Pseudomonas aeruginosa = settings: cited from earlier work
Staphylococcus aureus = settings: cited from earlier work
Hygroscopicity = format: physicochemical
Aspergillus brasiliensis = settings: cited from earlier work
[1] = 20° C., Echa Registration Dossier; cited from earlier work

water solubility (in words) (Solubility; water)	hygroscopicity (in words) (Hygroscopicity)	solubility (Solubility; organic solvent or mixture, ethanol, read-out: solubility in ethanol) [mg/mL]	solubility (Solubility; water, read-out: solubility in water) [mg/mL]	Compound	MIC (Candida albicans) [%]	MIC (Escherichia coli) [%]	MIC (Pseudomonas aeruginosa) [%]	MIC (Staphylococcus aureus) [%]	MIC (Aspergillus brasiliensis) [%]	solubility in water [1] [g/L]
good water solubility	–	–	–	CC(=O)CCC(=O)O [levulinic acid, 4-oxovaleric acid]	0.60	0.20	0.15	0.35	–	–
–	non-hygroscopic	–	–	COc1ccc(C(=O)[O-])cc1.[Na+] [p-methoxybenzoate salt, sodium p-methoxybenzoate]	–	–	–	–	–	–
low water solubility	–	50 (≈ 329000 µM)	0.3 (≈ 1970 µM)	COc1ccc(C(=O)O)cc1 [p-methoxybenzoic acid]	0.04	0.16	0.16	0.08	0.0025	0.2 (≈ 1310 µM)
–	highly hygroscopic	–	–	CC(=O)CCC(=O)[O-].[Na+] [sodium levulinate]	–	–	–	–	–	–
